Source: US20110171193A1, “COMPOSITIONS AND METHODS FOR TREATING PULMONARY HYPERTENSION” (THE BOARD OF TRUSTEES OF THE UNIVERSITY OF ILLINOIS, priority 2008, published 2011)

Legend:
Cav1−/− mice [1] = assay: RVSP in Cav1−/− mice with PH; assay type: in vivo, mouse; conditions: 8 month old Cav1−/− mice; 1 mg/ml in drinking water for 5 wk
Procedure: RVSP was determined as follows. Briefly, following anesthesia, mice were prepared for catheterization. A 1.4 F pressure transducer catheter (Millar Instruments) was carefully inserted via the right external jugular vein into the right ventricle to obtain measurements of RVSP using the Acknowledge software (Biopac Systems, Inc.). To determine lung vascular resistance, mice were anesthetized and prepared for perfusion. Pulmonary arterial (Ppa) and venous (Pv) pressures were monitored continuously through the pulmonary arterial and left atrial cannula, which were connected to a pressure transducer. […] Ppa was measured at steady-state and was plotted against the flow, which was measured by weighing the effluent collected over a one-minute period. […]
To determine whether pharmacological inhibition of eNOS in Cav1^−/− mice can reverse PH, we administered N-Nitro-L-Arginine Methyl Ester (L-NAME), a NOS inhibitor, to Cav1^−/− mice following onset of PH. […] Data are expressed as mean±SD (n=5-7). *, P=0.023 WT versus Cav1^−/−;**, P=0.015 Cav-L versus Cav1^−/−; #, P>0.5 Cav-D versus Cav1^−/−. […] Data are expressed as mean±SD (n=5-7). *, P=0.002 WT versus Cav1^−/−; **, P=0.013 Cav-L versus Cav1^−/−; #, P=0.8 Cav-D versus Cav1^−/−.
Hemodynamic Measurements. RVSP was determined with a 1.4 F pressure transducer catheter (Millar Instruments) and the Acknowledge software (Biopac Systems, Inc.). […]

Cav1−/− mice [2] = assay: Lung histology and muscularized distal pulmonary arteries in Cav1−/− mice; assay type: in vivo, mouse; conditions: 8 month old Cav1−/− mice; 1 mg/ml in drinking water for 5 wk
Procedure: Following PBS perfusion, the lung tissues were fixed for 5 min by instillation of 10% PBS-buffered formalin through trachea catheterization at a transpulmonary pressure of 15 cm H2O. After tracheal ligation, harvested lungs were fixed with 10% PBS-buffered formalin overnight at […] with agitation. After paraffin processing, the tissues were cut into semithin 4 to […] thick, and stained with either H & E for histological analysis or an antibody against nitrotyrosine (Upstate Biotechnology) for immunohistochemistry. Immunostaining was developed with a Vectastain ABC kit (Vector Laboratories). Histology and Imaging. Lung tissues were fixed and processed for H & E staining and immunofluorescent staining. for 5 min by instillation of 10% PBS-buffered formalin through trachea catheterization at a transpulmonary pressure of 15 cm H2O, and then overnight at 4° C. with agitation. After paraffin processing, the tissues were cut into semi-thin 4 to […] thick, and stained with H & E for histological analysis. For immunofluorescent staining, antigen retrieval was performed by incubating the slides in 10 mM sodium citrate (pH 6.0) at 95° C. for 10 min. […] The anti-a-SMA-positive pulmonary arterial vessels per field (200×) were counted based on the diameter (<40 μm versus>40 μm). Twenty fields per section were randomly identified and counted. […]

purified PKG-1 = biological target: T1, purified PKG-1 (Bos taurus, UniProt P00516); assay: In vitro kinase assay of purified PKG-1 after peroxynitrite or DETA NONOate; assay type: biochemical; conditions: peroxynitrite at indicated concentrations, 14 min at RT
T1 construct: purchased Promega
T1 sequence (P00516 1-671): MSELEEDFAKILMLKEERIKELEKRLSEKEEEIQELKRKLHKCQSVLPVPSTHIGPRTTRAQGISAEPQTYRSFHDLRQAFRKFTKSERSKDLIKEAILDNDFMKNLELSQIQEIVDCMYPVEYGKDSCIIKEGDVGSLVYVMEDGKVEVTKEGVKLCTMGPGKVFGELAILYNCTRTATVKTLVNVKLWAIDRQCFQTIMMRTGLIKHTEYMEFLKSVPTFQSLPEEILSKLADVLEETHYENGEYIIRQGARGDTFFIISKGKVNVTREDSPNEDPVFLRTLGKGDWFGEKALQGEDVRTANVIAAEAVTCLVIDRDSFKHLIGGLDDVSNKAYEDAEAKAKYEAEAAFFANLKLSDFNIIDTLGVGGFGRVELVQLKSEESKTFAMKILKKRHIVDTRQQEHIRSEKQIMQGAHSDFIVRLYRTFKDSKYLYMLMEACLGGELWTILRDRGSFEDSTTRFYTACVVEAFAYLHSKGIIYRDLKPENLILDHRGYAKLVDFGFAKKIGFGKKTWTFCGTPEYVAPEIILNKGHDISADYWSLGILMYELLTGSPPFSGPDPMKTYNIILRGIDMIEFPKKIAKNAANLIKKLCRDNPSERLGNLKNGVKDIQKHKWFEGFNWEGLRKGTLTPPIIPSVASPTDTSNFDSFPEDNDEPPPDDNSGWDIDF
Procedure: PKG Kinase Assay. In vitro activity of PKG was determined by measuring the transfer of the [g-^32P] phosphate group of ATP to the specific PKG substrate, BPDEtide (Calbiochem) in the absence or presence of exogenous 2.5 mM cGMP as described in Example 13. PKG activity is expressed as picmoles of ^32P incorporated into PKG substrate per min per microgram protein.
(§1) To address the role of peroxynitrite in the mechanism of the observed impairment of PKG activity, we treated human pulmonary artery smooth muscle cells with 3-morpholinosydnonimine (SIN-1), the superoxide and NO donor that forms peroxynitrite simultaneously (30). […] FIG. 9A relates to dose-dependent impairment of PKG activity by peroxynitrite. Purified […] (Promega) was incubated with peroxynitrite at indicated concentrations for 14 min at RT or with DETA NONOate (NONOate) for 30 min in dark at RT. Kinase activity was then assayed. Data is expressed mean+/−SD (n=3). *, P<0.05 versus control (0 μM). FIG. 9B relates to screening of PKG-1a mutants with in vitro kinase assay. At 48 hr post-transfection, myc-tagged WT and PKG-1a mutants were immunoprecipitated with anti-myc beads and aliquoted for incubation with either peroxynitrite (100 μM) or the same amount of 0.1 N NaOH only (CTL). […] PKG activity was expressed as pmoles/min/μg cell lysates. […] Data are expressed as mean±SD (n=3), *, P<0.05 versus either PKG-1a mutant. […]

human PKG-1a = assay: Myc-tagged PKG-1a tyrosine mutants treated with peroxynitrite: kinase assay and tyrosine nitration; assay type: biochemical; conditions: in contrast to wildtype PKG-1
Procedure: Identification of Nitrated Tyrosine Residues of PKG-1a. Tyrosine residue was mutated to Phenylalanine by site-directed mutagenesis following manufacture's instruction (Stratagene). Myc-tagged wild-type and mutant PKG-1a were overexpressed in human lung microvascular endothelial cells and cell lysates were then immunoprecipitated with anti-Myc for 4 hr at RT. […] Following 14 min incubation in 50 mM K2HPO4 buffer at RT, kinase activity was then measured as described above.
as §1, with “assay.” for “assay. At 48 hr post-transfection, myc-tagged WT and PKG-1a mutants were immunoprecipitated with anti-myc beads and aliquoted for incubation with either peroxynitrite (100 μM) or the same amount of 0.1 N NaOH only (CTL).”

Compound | RVSP (Cav1−/− mice [1]) | Number of muscularized distal pulmonary arteries (Cav1−/− mice [2]) | PKG activity (purified PKG-1) | PKG activity following peroxynitrite treatment (human PKG-1a; PKG-1a with mutation of tyrosine residue 345 or 549, peroxynitrite 100 μM) | Tyrosine nitration following peroxynitrite treatment (human PKG-1a; PKG-1 mutants (tyrosine 345 or 549), peroxynitrite 250 μM, 14 min at RT)
COC(=O)[C@H](N)CCCN=C(N)N[N+](=O)[O-] [D-NAME] | no effect | no effect |  |  | 
O=NOO [peroxynitrite] |  |  | decreased PKG activity in a concentration-dependent manner | no impairment of PKG activity | diminished tyrosine nitration
